Laboratory results from ChEMBL document CHEMBL1151006, “Synthesis of bicyclic thiazolidine PAF antagonists” (Bioorg Med Chem Lett, 1993).

Assay: Half life in rats after intravenous administration
Format: ADME, organism-based
Conditions: rat, in vivo

SMILES | half-life [min]
O=C(c1ccccc1)c1cccc(NC(=O)[C@@H]2CSC(c3cccnc3)N2)c1 (some centres not stated) | 60
O=C(c1ccccc1)c1cccc(NC(=O)[C@H]2OC(=O)N3[C@@H](c4cccnc4)SC[C@@H]23)c1 | 42
